# In ChEMBL document CHEMBL6153047, “Sulfilimines from a Medicinal Chemist's Perspective: Physicochemical and in Vitro Parameters Relevant for Drug Discovery” (J Med Chem, 2025):
# Experiments:
# [1] = Lipophilicity, logD of compound at pH 7.4 by UPLC-UV-MS analysis; type: physicochemical; settings: buffer
# [2] = Stability in human liver microsomes assessed as hepatic extraction ratio at 1 uM preincubated with compound followed by NADPH addition by LC-MS/MS analysis; type: ADME, Microsome; settings: read-out: ERH
# [3] = Dissociation constant, pKa of compound by UV spectroscopy; type: physicochemical
# [4] = Stability in human hepatocytes assessed as hepatic extraction ratio at 1 uM incubated for 6 hrs by HPLC-MS/MS analysis; type: ADME, cell-based, Hepatocyte; settings: read-out: ERH
# [5] = Stability in mouse liver microsomes assessed as hepatic extraction ratio at 1 uM preincubated with compound followed by NADPH addition by LC-MS/MS analysis; type: ADME, Microsome; settings: read-out: ERH
# [6] = Aqueous solubility of compound at pH 6.8 incubated for 24 hrs by LC-UV analysis; type: physicochemical; settings: buffer, pH 6.8, 24 h
# [7] = Efflux ratio in human Caco-2 cells measured upto 2 hrs; type: ADME, cell-based; settings: caco-2, 2 h
# [8] = Apparent permeability of compound incubated for 5 hrs by PAMPA assay; type: ADME
# [9] = Protein binding in human plasma at 1 uM incubated for 5 hrs by rapid equilibrium dialysis; type: ADME, cell-free
# [10] = Chemical stability assessed as compound decomposition at pH 7.4 and 40 degreeC measured after 3 days by HPLC-UV analysis; type: physicochemical; settings: buffer, time 3 day, read-out: Drug degradation
# [11] = Chemical stability assessed as compound decomposition at pH 10 and 40 degreeC measured after 3 days by HPLC-UV analysis; type: physicochemical; settings: buffer, time 3 day, read-out: Drug degradation
# [12] = Chemical stability assessed as compound decomposition at pH 1 and 40 degreeC measured after 3 days by HPLC-UV analysis; type: physicochemical; settings: buffer, time 3 day, read-out: Drug degradation
# [13] = Chemical stability assessed as compound decomposition at pH 4 and 40 degreeC measured after 3 days by HPLC-UV analysis; type: physicochemical; settings: buffer, time 3 day, read-out: Drug degradation
# [14] = Permeability across apical to basal side in human Caco-2 cells measured upto 2 hrs; type: ADME, cell-based; settings: caco-2, 2 h
SMILES,logD [1],hepatic extraction ratio at 1 µM [2],pKa [3],"hepatic extraction ratio at 6 h, 1 µM [4]",hepatic extraction ratio at 1 µM [5],solubility [6] [µg/mL],Ratio [7],Papp at 5 h [8] [×10⁻⁶ cm/s],PPB [9] [%],degraded at 72 h [10] [%],degraded at 72 h [11] [%],degraded at 72 h [12] [%],degraded at 72 h [13] [%],permeability [14],logD ([1]; read-out: logD)
Cc1ccc(NC(=O)c2ccc(P(C)(C)=O)cc2)cc1Nc1nccc(-c2cccnc2)n1,1.4,< 0.23,–,< 0.04,0.35,58,> 100,0.043,83.8,–,–,–,–,–,–
COC(=O)C(C(=O)OC)=S(NC(=O)C(C)(C)C)c1ccccc1 (stereo unspecified),2.5,> 0.89,–,–,0.63,> 76,< 1,–,–,6,7,58,< 0.1,> 10 10^-6 cm/s,–
Cc1ccc(S(=N)C2CC2)cc1 (stereo unspecified),–,< 0.23,10.9,0.57,< 0.23,27,0.7,–,–,0.5,7,8,3,–,0.3
Cc1ccc(S(=O)(=O)c2ccccc2)cc1,3.3,–,–,0.78,–,–,0.6,–,–,–,–,–,–,39 10^-6 cm/s,–
Cc1ccc(S(=O)(=NC(=O)C(C)(C)C)c2ccccc2)cc1 (stereo unspecified),4.2,0.61,–,0.33,> 0.88,< 1,0.7,–,–,0,0,16,0,51 10^-6 cm/s,–
COc1ccc(/S(=N/C(=O)C(C)(C)C)c2ccc(C)cc2)cc1 (stereo unspecified),4,0.44,–,0.46,> 0.88,59,0.7,–,–,2,1,< 0.5,2,72 10^-6 cm/s,–
CCOC(=O)/C(=S(/NC(=O)C(C)(C)C)c1ccccc1)P(=O)(OCC)OCC (stereo unspecified),3,> 0.23,–,–,0.41,> 87,1.9,–,–,< 0.5,< 0.5,57,< 0.5,25 10^-6 cm/s,–
Cc1ccc(S(=N)(=O)c2ccccc2)cc1 (stereo unspecified),–,0.45,2.4,0.46,0.66,> 47,0.8,–,–,< 0.5,< 0.5,< 0.5,< 0.5,93 10^-6 cm/s,–
COc1ccc(/S(C)=N\C(=O)C(C)(C)C)cc1 (stereo unspecified),2,0.27,–,0.58,0.65,–,0.8,–,–,–,–,–,–,69 10^-6 cm/s,–
CC(=O)/N=S(/c1ccccc1)c1ccc(C)cc1 (stereo unspecified),2,< 0.23,–,0.26,0.63,> 52,0.8,–,–,4,4,22,5,85 10^-6 cm/s,–

# Second part, the compound after the results:
logD [1],hepatic extraction ratio at 1 µM [2],pKa [3],"hepatic extraction ratio at 6 h, 1 µM [4]",hepatic extraction ratio at 1 µM [5],solubility [6] [µg/mL],Ratio [7],Papp at 5 h [8] [×10⁻⁶ cm/s],PPB [9] [%],degraded at 72 h [10] [%],degraded at 72 h [11] [%],degraded at 72 h [12] [%],degraded at 72 h [13] [%],permeability [14],logD ([1]; read-out: logD),SMILES
1.5,< 0.23,2.5,0.08,< 0.23,> 50,–,–,–,–,–,–,–,–,–,CS(=N)(=O)c1ccc(C(F)(F)F)cc1 (stereo unspecified)
2.2,< 0.23,–,0.18,0.43,42,0.7,–,–,< 0.1,< 0.1,72,9,100 10^-6 cm/s,–,N#C/N=S(\c1ccc(C(F)(F)F)cc1)C1CC1 (stereo unspecified)
3.5,< 0.23,–,0.16,0.59,51,0.7,–,–,4,3,0.9,4,90 10^-6 cm/s,–,CC(C)(C)C(=O)/N=S(\c1ccc(C(F)(F)F)cc1)C1CC1 (stereo unspecified)
3.5,> 0.89,7.2,0.73,> 0.88,41,0.7,–,–,9,7,80,2,43 10^-6 cm/s,–,FC(F)(F)c1ccc(/S(=N\c2ccccc2)C2CC2)cc1 (stereo unspecified)
–,< 0.23,–,0.08,0.26,49,0.9,–,–,3,1,4,1,93 10^-6 cm/s,–,N=S(c1ccc(C(F)(F)F)cc1)c1cccnc1 (stereo unspecified)
0.7,< 0.23,–,0.17,< 0.23,–,0.9,–,–,13,97,17,5,–,–,CCS(=N)c1ccc(C(F)(F)F)cc1 (stereo unspecified)
2.1,< 0.23,–,0.29,0.38,26,0.8,–,–,10,11,27,10,88 10^-6 cm/s,–,COC(=O)/N=S(\c1ccc(C(F)(F)F)cc1)C1CC1 (stereo unspecified)
2.3,–,–,–,–,> 47,–,–,–,–,–,–,–,–,–,CS(=O)(=O)c1ccc(C(F)(F)F)cc1
1.9,–,–,0.19,–,> 46,0.8,–,–,–,–,–,–,130 10^-6 cm/s,–,C[S+]([O-])c1ccc(C(F)(F)F)cc1 (stereo unspecified)
1.7,< 0.23,–,0.1,< 0.23,38,0.7,–,–,7,8,20,8,85 10^-6 cm/s,–,CC(=O)/N=S(\c1ccc(C(F)(F)F)cc1)C1CC1 (stereo unspecified)
